Experimental findings from the supplement of paper PMC8497498 are described below.

The test system of test [1] is Plasmodium vivax liver stage (primary human hepatocyte culture). Summed up:
(§1)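 Primary human hepatocytes were infected with P. vivax sporozoites taken from mosquitoes fed on patient isolates. Compounds were pin-transferred in 40 nL volumes from 1000× DMSO plates, either at 8 points (10 uM[…]) or at 12 points in duplicate (50 uM–280 pM). Fixed, immunostained wells were imaged by high-content imaging for schizont growth area, hypnozoite count and hepatic nuclei, with values normalised to DMSO and positive-control wells. Potency, maximum inhibition and cytotoxicity based on nuclei loss were derived from CDD Vault curves of the highest-quality run, after toxic bell-shaped points were removed.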

For test [2], the system named is Plasmodium cynomolgi Berok K4 asexual blood stage. Put plainly: EC50 asexual blood stage growth. The procedure: (§2)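 The Reference Compound Library was tested by 10-point 3-fold dose response against P. cynomolgi Berok K4 asexual blood stages (SYBR proliferation assay, mefloquine background control). Culture medium contained 0.5% AlbuMAX or 20% M. fascicularis serum. P. falciparum 3D7 was tested in a 72-h SYBR Green assay with 0.5% AlbuMAX. Values are geometric mean EC50 over independent experiments; 10 uM is the top dose.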

Test [3] deals with Plasmodium falciparum 3D7 asexual blood stage. The test is described as follows: EC50 asexual blood stage growth. As to conditions: serum: 0.5% AlbuMAX. The procedure: as §2
Test [4] has as its system primary human hepatocytes. Put plainly: CC20 hepatic nuclei (20% reduction); higher = less toxic. The method, boiled down:
as §1

For test [5], the system named is Plasmodium vivax liver stage (primary human hepatocyte culture). The test is described as follows: maximum inhibition of schizont net growth area; higher = more active. The method, boiled down: as §1
Where [6] appears, read: P. vivax isolate: Pv668, hepatocyte lot: BGW, assay mode: Radical Cure, 8-day (treatment from day 5 post-infection).
[7] abbreviates: P. vivax isolate: Pv914, hepatocyte lot: BGW, assay mode: Prophylactic, 6-day.
The mark [8] stands for this setting: serum: 20% M. fascicularis serum.
The mark [9] stands for this setting: P. vivax isolate: Pv360, hepatocyte lot: UBV, assay mode: Radical Cure, 8-day (treatment from day 5 post-infection).
[10] abbreviates: P. vivax isolate: Pv992, hepatocyte lot: BGW, assay mode: Prophylactic, 6-day.
Setting [11] is: P. vivax isolate: Pv360, hepatocyte lot: UBV, assay mode: Prophylactic, 6-day.
Where [12] appears, read: P. vivax isolate: IVS16-38, hepatocyte lot: PDC, assay mode: Prophylactic, 6-day.
Where [13] appears, read: P. vivax isolate: Pv923, hepatocyte lot: BGW, assay mode: Radical Cure, 8-day (treatment from day 5 post-infection).

As for `O[C@H](c1cc(C(F)(F)F)nc2c(C(F)(F)F)cccc12)[C@@H]1CCCCN1` [(+)-Mefloquine], the values for the EC50 hypnozoite quantity in test [1] (setting [6]) and in test [1] (setting [7]) were greater than 50000 nM and 14800 nM, respectively. The “EC50 schizont net growth area” value in test [1] (setting [7]) was 5730 nM. Besides, the results for the “EC50 asexual blood stage growth” value in test [2] (serum: 0.5% AlbuMAX), in test [2] (setting [8]) and in test [3] were 31.2 nM, 60 nM and 17.9 nM, respectively. Moreover, the CC20 hepatic nuclei in test [4] (setting [6]) came to 23300 nM; in test [4] (setting [7]), 13200 nM. Further, the maximum inhibition stood at 93.9% in test [5] (setting [6]) and 98.7% in test [5] (setting [7]).
`CCN(CC)CCCNc1ccnc2cc(Cl)ccc12` [AQ-13] registered an EC50 hypnozoite quantity in test [1] (setting [7]) greater than 10000 nM. Further, the “EC50 asexual blood stage growth” value turned out to be 78.7 nM in test [2] (serum: 0.5% AlbuMAX), 55.9 nM in test [2] (setting [8]) and 16 nM in test [3]. Further, the CC20 hepatic nuclei in test [4] (setting [7]) is greater than 10000 nM. In addition, the maximum inhibition in test [5] (setting [7]) was determined as 56.1%.
With `Cc1nc(Nc2ncc(N3CCN(C)C(C)C3)c(Nc3cc(C)n(C)n3)n2)cc(C2CC2)c1F` (stereo not drawn) [AZ412], the EC50 hypnozoite quantity in test [1] (setting [9]) is greater than 10000 nM; in test [1] (setting [7]), greater than 3330 nM. For the same compound, the “EC50 schizont net growth area” value came to 381 nM in test [1] (setting [9]) and 686 nM in test [1] (setting [7]). Also, the figures for the “EC50 asexual blood stage growth” value in test [2] (serum: 0.5% AlbuMAX), in test [2] (setting [8]) and in test [3] were 76.8 nM, 56.7 nM and 23.2 nM, respectively. For the same compound, the CC20 hepatic nuclei in test [4] (setting [9]) and in test [4] (setting [7]) was greater than 10000 nM in each case. In addition, the maximum inhibition in test [5] (setting [9]) worked out at 104%; in test [5] (setting [7]), 99.7%.
For `CCN(CC)Cc1cc(Nc2ccnc3cc(Cl)ccc23)ccc1O` [Amodiaquine], the EC50 hypnozoite quantity in test [1] (setting [10]) was greater than 10000 nM. The “EC50 schizont net growth area” value in test [1] (setting [10]) amounted to 14.1 nM. For the same compound, the “EC50 asexual blood stage growth” value in test [2] (serum: 0.5% AlbuMAX) was 19.8 nM; in test [2] (setting [8]) it was 8.1 nM; in test [3] it was 6 nM. The compound also yielded a CC20 hepatic nuclei in test [4] (setting [10]) greater than 10000 nM. Moreover, the maximum inhibition in test [5] (setting [10]) was found to be 87.2%.
In turn, `COC1OC2OC3(C)CCC4C(C)CCC(C1C)C24OO3` (stereo not drawn) [Artemether] came in with an EC50 hypnozoite quantity in test [1] (setting [11]) greater than 10000 nM. The figures for the “EC50 asexual blood stage growth” value in test [2] (serum: 0.5% AlbuMAX), in test [2] (setting [8]) and in test [3] were 6.8 nM, 6.5 nM and 57.5 nM, respectively. In test [4] (setting [11]), the CC20 hepatic nuclei was greater than 10000 nM. Besides, the maximum inhibition in test [5] (setting [11]) was 60.4%.
In test [1] (setting [7]), `CCC1OC(=O)C(C)C(OC2CC(C)(OC)C(O)C(C)O2)C(C)C(OC2OC(C)CC(N(C)C)C2O)C(C)(O)CC(C)CN(C)C(C)C(O)C1(C)O` (stereo not drawn) [Azithromycin] gave an EC50 hypnozoite quantity greater than 10000 nM. In test [1] (setting [7]), the “EC50 schizont net growth area” value is greater than 370 nM. In addition, the “EC50 asexual blood stage growth” value in test [2] (serum: 0.5% AlbuMAX), in test [2] (setting [8]) and in test [3] was greater than 10000 nM throughout. In test [4] (setting [7]), this compound came in with a CC20 hepatic nuclei greater than 10000 nM. Besides, the maximum inhibition in test [5] (setting [7]) came out at 63.3%.
As to `CC(C)N=C(N)N=C(N)Nc1ccc(Cl)c(Cl)c1` [Chlorproguanil], the EC50 hypnozoite quantity in test [1] (setting [7]) was greater than 10000 nM. Moreover, in test [1] (setting [7]), the “EC50 schizont net growth area” value is greater than 1110 nM. The “EC50 asexual blood stage growth” value in test [2] (serum: 0.5% AlbuMAX) was 8450 nM; in test [2] (setting [8]), greater than 10000 nM; in test [3] it was 5340 nM. The same compound yielded a CC20 hepatic nuclei in test [4] (setting [7]) greater than 10000 nM. The maximum inhibition in test [5] (setting [7]) is 98.1%.
As for `CCCCCCC[C@@H]1CN[C@H](C(=O)NC(C(C)Cl)C2O[C@H](SC)[C@H](O)[C@@H](O)[C@H]2O)C1` (stereo partly drawn) [Cis-Mirincamycin], in test [1] (setting [7]), the EC50 hypnozoite quantity was greater than 10000 nM. Also, the “EC50 asexual blood stage growth” value is 7990 nM in test [2] (serum: 0.5% AlbuMAX), greater than 10000 nM in test [2] (setting [8]) and greater than 10000 nM in test [3]. The compound also returned a CC20 hepatic nuclei in test [4] (setting [7]) greater than 10000 nM. In test [5] (setting [7]), the maximum inhibition was found to be 69.3%.
Regarding `Cc1cc(Nc2ccc(S(F)(F)(F)(F)F)cc2)n2nc(C(C)(F)F)nc2n1` [DSM265], the EC50 hypnozoite quantity in test [1] (setting [12]) was greater than 3070 nM; in test [1] (setting [13]), greater than 10000 nM. For the same compound, the “EC50 schizont net growth area” value in test [1] (setting [12]) was 126 nM; in test [1] (setting [13]), greater than 1110 nM. Moreover, the “EC50 asexual blood stage growth” value was found to be 6.4 nM in test [2] (serum: 0.5% AlbuMAX), 62.5 nM in test [2] (setting [8]) and 11 nM in test [3]. The CC20 hepatic nuclei is greater than 3070 nM in test [4] (setting [12]) and greater than 10000 nM in test [4] (setting [13]). In addition, the maximum inhibition was found to be 100% in test [5] (setting [12]) and 69.4% in test [5] (setting [13]).
On to `COc1cc2[nH]c(C)c(-c3ccc(Oc4ccc(OC(F)(F)F)cc4)cc3)c(=O)c2cc1Cl` [ELQ-300], for which the EC50 hypnozoite quantity in test [1] (setting [7]) was greater than 1110 nM. Further, the “EC50 schizont net growth area” value in test [1] (setting [7]) was 57.6 nM. Moreover, the figures for the “EC50 asexual blood stage growth” value in test [2] (serum: 0.5% AlbuMAX), in test [2] (setting [8]) and in test [3] were 42 nM, 3.3 nM and 47.1 nM, respectively. In test [4] (setting [7]), this compound came in with a CC20 hepatic nuclei greater than 10000 nM. In test [5] (setting [7]), the maximum inhibition was 97.9%.
Compound `CCNCc1cc(Nc2ccnc3cc(Cl)ccc23)ccc1O` [N-Desethylamodiaquine] registered an EC50 hypnozoite quantity in test [1] (setting [7]) greater than 10000 nM. The “EC50 schizont net growth area” value in test [1] (setting [7]) was greater than 3330 nM. Besides, the “EC50 asexual blood stage growth” value was determined as 22.2 nM in test [2] (serum: 0.5% AlbuMAX), 11.5 nM in test [2] (setting [8]) and 56 nM in test [3]. In test [4] (setting [7]), this compound yielded a CC20 hepatic nuclei greater than 10000 nM. Besides, the maximum inhibition in test [5] (setting [7]) worked out at 74.5%.
The compound `COc1cc(NC(C)CCCN)c2nccc(C)c2c1Oc1ccc(Cl)c(Cl)c1` (stereo not drawn) [NPC-1161B] yielded an EC50 hypnozoite quantity in test [1] (setting [7]) greater than 10000 nM. Besides, the “EC50 schizont net growth area” value in test [1] (setting [7]) was greater than 370 nM. The “EC50 asexual blood stage growth” value in test [2] (serum: 0.5% AlbuMAX) amounted to 2760 nM; in test [2] (setting [8]) it was 8200 nM; in test [3], 2860 nM. The CC20 hepatic nuclei in test [4] (setting [7]) was greater than 10000 nM. Besides, the maximum inhibition in test [5] (setting [7]) is 91.9%.
Turning to `CCc1nc(N)nc(N)c1OCCCOc1ccccc1CCC(=O)O` [P218], the EC50 hypnozoite quantity in test [1] (setting [7]) is greater than 10000 nM. Besides, in test [1] (setting [7]), the “EC50 schizont net growth area” value worked out at 51.1 nM. The “EC50 asexual blood stage growth” value amounted to 0.7 nM in test [2] (serum: 0.5% AlbuMAX), 1.7 nM in test [2] (setting [8]) and 2 nM in test [3]. Also, the CC20 hepatic nuclei in test [4] (setting [7]) was greater than 10000 nM. In test [5] (setting [7]), the maximum inhibition was determined as 101%.
Turning to `CCN(CC)CCCC(C)Nc1cc(OC)cc2cccnc12` (stereo not drawn) [Pamaquine], in test [1] (setting [10]), the EC50 hypnozoite quantity is greater than 3330 nM. Further, the “EC50 schizont net growth area” value in test [1] (setting [10]) is greater than 10000 nM. Further, the “EC50 asexual blood stage growth” value in test [2] (serum: 0.5% AlbuMAX) worked out at 325 nM; in test [2] (setting [8]) it was 187 nM; in test [3], 3950 nM. This compound also came in with a CC20 hepatic nuclei in test [4] (setting [10]) greater than 10000 nM. For the same compound, in test [5] (setting [10]), the maximum inhibition was found to be 61%.
As for `COc1ccc2nc3cc(Cl)ccc3c(Nc3cc(CN4CCCC4)c(O)c(CN4CCCC4)c3)c2n1` [Pyronaridine], the EC50 hypnozoite quantity in test [1] (setting [7]) was greater than 3330 nM. The “EC50 schizont net growth area” value in test [1] (setting [7]) was greater than 3330 nM. The “EC50 asexual blood stage growth” value is 3.5 nM in test [2] (serum: 0.5% AlbuMAX), 4 nM in test [2] (setting [8]) and 5 nM in test [3]. The same compound registered a CC20 hepatic nuclei in test [4] (setting [7]) of 7910 nM. Also, in test [5] (setting [7]), the maximum inhibition is 99.4%.
